Measured values as given in ChEMBL document CHEMBL4630909 (2021).

Experiments:
[1] = target: D(1B) dopamine receptor (Homo sapiens) (UniProt P21918); details: Compound concentration 10.0 uM
[2] = target: Histamine H3 receptor (Homo sapiens) (UniProt Q9Y5N1); details: Compound concentration 10.0 uM
[3] = target: Beta-3 adrenergic receptor (Homo sapiens) (UniProt P13945); details: Compound concentration 10.0 uM
[4] = target: GABA-A receptor; anion channel; test: (§1) Cross screening panel; assay type: protein-complex assay
[5] = target: 5-hydroxytryptamine receptor 2B (Homo sapiens) (UniProt P41595); details: Compound concentration 10.0 uM
[6] = target: Alpha-1D adrenergic receptor (Homo sapiens) (UniProt P25100); details: Compound concentration 10.0 uM
[7] = target: 5-hydroxytryptamine receptor 7 (Homo sapiens) (UniProt P34969); details: Compound concentration 10.0 uM
D(1A) dopamine receptor = D(1A) dopamine receptor (Homo sapiens, UniProt P21728); details: Compound concentration 10.0 uM
Protein polybromo-1 = Protein polybromo-1 (Homo sapiens, UniProt Q86U86); test: PBRM1(5) DiscoverX BROMOscan
[8] = target: E3 ubiquitin-protein ligase TRIM33 (Homo sapiens, UniProt Q9UPN9); test: TRIM33(PHD,Bromo.) DiscoverX BROMOscan
[9] = target: Muscarinic acetylcholine receptor M4 (Homo sapiens) (UniProt P08173); details: Compound concentration 10.0 uM
[10] = target: Histone acetyltransferase p300 (Homo sapiens, UniProt Q09472); test: EP300 DiscoverX BROMOscan
[11] = target: T1, Kappa-type opioid receptor (Homo sapiens, UniProt P41145); details: Compound concentration 10.0 uM
[12] = target: Bromodomain adjacent to zinc finger domain protein 2B (Homo sapiens, UniProt Q9UIF8); test: BAZ2B DiscoverX BROMOscan
[13] = target: Histamine H4 receptor (Homo sapiens) (UniProt Q9H3N8); details: Compound concentration 10.0 uM
[14] = target: Phosphatidylinositol 4,5-bisphosphate 3-kinase catalytic subunit gamma isoform (Homo sapiens, UniProt P48736); test: as §1
[15] = target: Potassium voltage-gated channel subfamily A member 5 (Homo sapiens, UniProt P22460); test: as §1
[16] = target: Muscarinic acetylcholine receptor M1 (Homo sapiens, UniProt P11229); test: as §1
[17] = target: 5-hydroxytryptamine receptor 2A (Homo sapiens, UniProt P28223); test: as §1
[18] = target: Tyrosine-protein kinase Lck (Homo sapiens, UniProt P06239); test: as §1
[19] = target: Solute carrier organic anion transporter family member 1B1 (Homo sapiens, UniProt Q9Y6L6); test: as §1
[20] = target: Muscarinic acetylcholine receptor M2 (Homo sapiens, UniProt P08172); test: as §1
[21] = target: T1, Kappa-type opioid receptor; test: as §1
[22] = target: Amine oxidase [flavin-containing] A (Homo sapiens, UniProt P21397); test: as §1
[23] = target: Alpha-1B adrenergic receptor (Homo sapiens, UniProt P35368); test: as §1
[24] = target: Acetylcholine receptor subunit alpha (Homo sapiens, UniProt P02708); test: as §1
Histamine H1 receptor = Histamine H1 receptor (Homo sapiens, UniProt P35367); test: as §1
[25] = target: 5-hydroxytryptamine receptor 3A (Homo sapiens, UniProt P46098); test: as §1
D(2) dopamine receptor = D(2) dopamine receptor (Homo sapiens, UniProt P14416); test: as §1
[26] = target: Glutamate receptor ionotropic, NMDA 2B (Homo sapiens, UniProt Q13224); test: as §1
[27] = target: Sodium channel protein type 5 subunit alpha (Homo sapiens, UniProt Q14524); test: as §1
Adenosine receptor A2a = Adenosine receptor A2a (Homo sapiens, UniProt P29274); test: as §1
[28] = target: Voltage-dependent L-type calcium channel subunit alpha-1C (Homo sapiens, UniProt Q13936); test: as §1
[29] = target: Prostaglandin G/H synthase 2 (Homo sapiens, UniProt P35354); test: as §1
[30] = target: Sodium-dependent serotonin transporter (Homo sapiens, UniProt P31645); test: as §1
[31] = target: Sodium-dependent noradrenaline transporter (Homo sapiens, UniProt P23975); test: as §1
Acetylcholinesterase = Acetylcholinesterase (Homo sapiens, UniProt P22303); test: as §1
[32] = target: Nuclear receptor subfamily 1 group I member 2 (Homo sapiens, UniProt O75469); test: as §1
[33] = target: 5-hydroxytryptamine receptor 1B (Homo sapiens, UniProt P28222); test: as §1
Aurora kinase B = Aurora kinase B (Homo sapiens, UniProt Q96GD4); test: as §1
[34] = target: 3',5'-cyclic-AMP phosphodiesterase 4B (Homo sapiens, UniProt Q07343); test: as §1
[35] = target: cGMP-inhibited 3',5'-cyclic phosphodiesterase 3A (Homo sapiens, UniProt Q14432); test: as §1
Substance-P receptor = Substance-P receptor (Homo sapiens, UniProt P25103); test: as §1
[36] = target: Alpha-2C adrenergic receptor (Homo sapiens, UniProt P18825); test: as §1
[37] = target: Beta-2 adrenergic receptor (Homo sapiens, UniProt P07550); test: as §1
[38] = target: Aryl hydrocarbon receptor (Homo sapiens, UniProt P35869); test: as §1
Mu-type opioid receptor = Mu-type opioid receptor (Homo sapiens, UniProt P35372); test: as §1
[39] = target: 5-hydroxytryptamine receptor 2C (Homo sapiens, UniProt P28335); test: as §1

Sequence of Muscarinic acetylcholine receptor M1 (P11229 whole entry): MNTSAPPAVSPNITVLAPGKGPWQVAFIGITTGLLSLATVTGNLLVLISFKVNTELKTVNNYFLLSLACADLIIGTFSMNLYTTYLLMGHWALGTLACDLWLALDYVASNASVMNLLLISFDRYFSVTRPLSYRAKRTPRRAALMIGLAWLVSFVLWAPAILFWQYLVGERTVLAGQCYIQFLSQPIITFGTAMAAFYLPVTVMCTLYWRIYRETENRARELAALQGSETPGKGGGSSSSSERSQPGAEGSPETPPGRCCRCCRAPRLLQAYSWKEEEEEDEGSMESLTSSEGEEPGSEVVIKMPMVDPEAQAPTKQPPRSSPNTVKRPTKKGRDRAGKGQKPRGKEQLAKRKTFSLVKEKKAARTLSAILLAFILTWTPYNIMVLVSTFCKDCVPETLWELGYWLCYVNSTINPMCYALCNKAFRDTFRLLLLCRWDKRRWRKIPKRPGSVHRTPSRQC
Sequence of D(2) dopamine receptor (P14416 whole entry): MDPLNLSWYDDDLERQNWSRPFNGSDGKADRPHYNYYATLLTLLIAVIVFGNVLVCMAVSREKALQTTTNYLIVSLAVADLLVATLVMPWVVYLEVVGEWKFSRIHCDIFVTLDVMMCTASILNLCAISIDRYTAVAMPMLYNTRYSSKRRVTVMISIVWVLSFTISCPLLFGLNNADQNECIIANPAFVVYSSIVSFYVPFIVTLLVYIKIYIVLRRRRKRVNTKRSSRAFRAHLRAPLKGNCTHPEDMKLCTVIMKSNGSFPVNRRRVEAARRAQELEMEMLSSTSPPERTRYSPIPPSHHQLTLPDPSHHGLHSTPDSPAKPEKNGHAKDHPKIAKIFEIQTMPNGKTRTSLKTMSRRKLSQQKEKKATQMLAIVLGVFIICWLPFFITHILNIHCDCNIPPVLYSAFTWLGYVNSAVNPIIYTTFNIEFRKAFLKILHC
Sequence of 5-hydroxytryptamine receptor 3A (P46098 whole entry): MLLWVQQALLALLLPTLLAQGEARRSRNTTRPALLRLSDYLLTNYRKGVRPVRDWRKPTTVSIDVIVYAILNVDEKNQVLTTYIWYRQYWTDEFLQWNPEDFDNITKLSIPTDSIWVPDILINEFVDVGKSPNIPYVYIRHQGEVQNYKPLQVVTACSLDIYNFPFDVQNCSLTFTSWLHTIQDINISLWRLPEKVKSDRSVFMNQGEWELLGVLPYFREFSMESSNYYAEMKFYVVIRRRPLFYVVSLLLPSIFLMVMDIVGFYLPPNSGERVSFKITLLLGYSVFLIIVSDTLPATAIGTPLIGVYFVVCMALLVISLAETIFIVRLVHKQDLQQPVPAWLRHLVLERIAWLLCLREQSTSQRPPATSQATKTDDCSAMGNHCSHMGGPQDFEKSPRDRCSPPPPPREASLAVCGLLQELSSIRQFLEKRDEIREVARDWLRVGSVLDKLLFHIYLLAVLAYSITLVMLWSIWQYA
Sequence of Muscarinic acetylcholine receptor M2 (P08172 whole entry): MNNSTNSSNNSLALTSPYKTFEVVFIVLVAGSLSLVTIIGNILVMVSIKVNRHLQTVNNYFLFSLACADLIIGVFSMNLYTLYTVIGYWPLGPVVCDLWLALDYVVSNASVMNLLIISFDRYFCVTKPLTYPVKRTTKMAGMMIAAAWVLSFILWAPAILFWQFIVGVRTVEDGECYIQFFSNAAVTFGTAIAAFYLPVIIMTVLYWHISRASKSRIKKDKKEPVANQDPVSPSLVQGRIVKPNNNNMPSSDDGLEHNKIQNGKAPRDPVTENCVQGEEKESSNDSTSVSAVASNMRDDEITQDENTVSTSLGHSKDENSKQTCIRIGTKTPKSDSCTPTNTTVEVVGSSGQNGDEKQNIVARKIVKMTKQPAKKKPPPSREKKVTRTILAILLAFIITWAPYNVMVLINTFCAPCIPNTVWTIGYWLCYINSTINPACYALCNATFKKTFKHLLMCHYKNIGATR
Sequence of 5-hydroxytryptamine receptor 1B (P28222 whole entry): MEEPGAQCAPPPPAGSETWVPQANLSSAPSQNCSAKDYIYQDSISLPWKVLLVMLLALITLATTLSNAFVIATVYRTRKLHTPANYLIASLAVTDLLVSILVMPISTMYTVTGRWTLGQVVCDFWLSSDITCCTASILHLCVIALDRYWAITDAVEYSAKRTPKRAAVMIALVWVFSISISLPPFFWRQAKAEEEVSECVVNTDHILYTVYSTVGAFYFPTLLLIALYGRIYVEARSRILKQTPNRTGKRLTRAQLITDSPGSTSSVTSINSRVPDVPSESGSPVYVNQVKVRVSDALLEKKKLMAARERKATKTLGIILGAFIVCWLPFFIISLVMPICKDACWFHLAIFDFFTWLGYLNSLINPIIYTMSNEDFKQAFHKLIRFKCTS
T1 sequence (P41145 whole entry, the tested form may be a part): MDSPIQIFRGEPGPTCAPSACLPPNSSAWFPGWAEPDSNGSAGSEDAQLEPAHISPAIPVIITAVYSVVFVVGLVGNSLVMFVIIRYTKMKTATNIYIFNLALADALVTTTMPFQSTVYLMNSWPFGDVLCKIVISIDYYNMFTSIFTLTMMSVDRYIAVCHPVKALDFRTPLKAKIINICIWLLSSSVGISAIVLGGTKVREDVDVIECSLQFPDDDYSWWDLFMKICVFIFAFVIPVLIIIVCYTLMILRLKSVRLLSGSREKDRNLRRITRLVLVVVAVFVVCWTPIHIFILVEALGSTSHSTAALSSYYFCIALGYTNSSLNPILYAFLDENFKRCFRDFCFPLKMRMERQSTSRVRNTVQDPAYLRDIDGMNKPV
Sequence of Beta-2 adrenergic receptor (P07550 whole entry): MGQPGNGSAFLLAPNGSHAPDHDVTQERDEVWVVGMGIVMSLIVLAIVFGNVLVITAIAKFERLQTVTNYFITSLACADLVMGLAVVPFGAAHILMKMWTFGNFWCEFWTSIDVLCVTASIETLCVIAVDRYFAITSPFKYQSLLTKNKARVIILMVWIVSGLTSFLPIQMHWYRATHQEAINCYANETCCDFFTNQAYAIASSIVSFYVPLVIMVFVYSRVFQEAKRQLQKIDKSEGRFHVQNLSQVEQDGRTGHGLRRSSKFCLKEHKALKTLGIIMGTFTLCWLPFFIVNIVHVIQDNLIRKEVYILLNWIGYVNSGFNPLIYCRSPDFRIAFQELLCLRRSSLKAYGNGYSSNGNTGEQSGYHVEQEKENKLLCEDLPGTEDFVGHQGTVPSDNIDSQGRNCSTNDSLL
Sequence of Acetylcholine receptor subunit alpha (P02708 whole entry): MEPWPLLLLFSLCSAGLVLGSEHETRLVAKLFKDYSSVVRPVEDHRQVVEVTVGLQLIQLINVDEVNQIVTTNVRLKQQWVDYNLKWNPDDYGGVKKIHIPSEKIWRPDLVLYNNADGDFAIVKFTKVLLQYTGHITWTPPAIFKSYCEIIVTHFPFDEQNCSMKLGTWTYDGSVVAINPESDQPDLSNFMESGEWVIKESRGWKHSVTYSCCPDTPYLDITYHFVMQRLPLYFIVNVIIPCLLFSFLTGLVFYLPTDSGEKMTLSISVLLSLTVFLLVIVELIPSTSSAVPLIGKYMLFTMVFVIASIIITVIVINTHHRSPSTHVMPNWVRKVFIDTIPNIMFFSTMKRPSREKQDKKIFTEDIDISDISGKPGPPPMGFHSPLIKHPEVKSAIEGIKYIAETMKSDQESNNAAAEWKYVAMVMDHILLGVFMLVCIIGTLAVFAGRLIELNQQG
Sequence of 5-hydroxytryptamine receptor 2A (P28223 whole entry): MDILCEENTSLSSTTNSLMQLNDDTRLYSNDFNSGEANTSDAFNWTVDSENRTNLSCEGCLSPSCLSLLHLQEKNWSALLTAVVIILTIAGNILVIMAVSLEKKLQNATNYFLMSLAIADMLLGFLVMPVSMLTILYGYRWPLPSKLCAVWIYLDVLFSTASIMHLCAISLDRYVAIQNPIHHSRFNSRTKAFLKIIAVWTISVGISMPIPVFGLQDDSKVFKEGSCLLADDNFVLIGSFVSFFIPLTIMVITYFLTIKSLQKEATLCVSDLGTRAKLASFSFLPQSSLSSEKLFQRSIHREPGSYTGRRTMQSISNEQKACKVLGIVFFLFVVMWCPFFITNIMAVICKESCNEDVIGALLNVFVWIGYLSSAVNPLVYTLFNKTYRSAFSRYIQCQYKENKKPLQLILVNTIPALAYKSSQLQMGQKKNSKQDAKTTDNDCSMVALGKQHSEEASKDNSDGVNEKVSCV
Sequence of Histamine H4 receptor (Homo sapiens) (Q9H3N8 whole entry, canonical isoform): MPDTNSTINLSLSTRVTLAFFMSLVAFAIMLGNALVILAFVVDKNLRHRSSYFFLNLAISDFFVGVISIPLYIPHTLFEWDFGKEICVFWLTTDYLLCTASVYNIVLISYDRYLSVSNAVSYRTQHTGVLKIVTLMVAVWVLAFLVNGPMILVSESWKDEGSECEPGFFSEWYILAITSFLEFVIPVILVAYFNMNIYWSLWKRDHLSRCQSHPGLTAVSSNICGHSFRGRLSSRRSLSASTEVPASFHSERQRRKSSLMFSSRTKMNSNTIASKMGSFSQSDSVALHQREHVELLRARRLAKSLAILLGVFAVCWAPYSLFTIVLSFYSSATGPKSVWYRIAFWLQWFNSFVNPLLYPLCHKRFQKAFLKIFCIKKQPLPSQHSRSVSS
Sequence of Histamine H1 receptor (P35367 whole entry): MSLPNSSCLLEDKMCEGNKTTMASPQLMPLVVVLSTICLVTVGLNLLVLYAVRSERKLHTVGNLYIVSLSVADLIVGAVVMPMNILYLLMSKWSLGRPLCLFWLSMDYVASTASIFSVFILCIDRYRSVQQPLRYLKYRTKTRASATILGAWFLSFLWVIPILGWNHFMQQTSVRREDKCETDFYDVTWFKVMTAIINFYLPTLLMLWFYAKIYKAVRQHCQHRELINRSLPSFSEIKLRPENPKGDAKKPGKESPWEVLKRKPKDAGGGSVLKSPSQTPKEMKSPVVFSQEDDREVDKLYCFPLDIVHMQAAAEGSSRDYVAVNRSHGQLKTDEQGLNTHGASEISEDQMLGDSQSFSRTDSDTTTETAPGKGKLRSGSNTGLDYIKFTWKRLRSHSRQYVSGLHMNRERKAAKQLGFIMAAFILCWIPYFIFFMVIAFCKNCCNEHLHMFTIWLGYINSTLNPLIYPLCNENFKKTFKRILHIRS

CNC(=O)c1cc(C(=O)NC2CC2)cn(Cc2ccccc2)c1=O [GSK620]
inhibition [1]: 18.6% | inhibition [2]: -8.16% | inhibition [3]: 18.6% | pEC50 [4]: < 4 | inhibition [5]: 16.5% | inhibition [6]: 2.36% | inhibition [7]: 13.6% | inhibition (D(1A) dopamine receptor): 6.94% | Kd (Protein polybromo-1): 31.6 µM | Kd [8]: 31.6 µM | inhibition [9]: 0.52% | Kd [10]: 7.94 µM | inhibition [11]: 39.9% | Kd [12]: 31.6 µM | inhibition [13]: 16.1% | IC50 [14]: > 31.6 µM | IC50 [15]: > 50.1 µM | EC50 [16]: > 50.1 µM | IC50 [16]: > 50.1 µM | EC50 [17]: > 25.1 µM | IC50 [17]: > 25.1 µM | IC50 [18]: > 31.6 µM | IC50 [19]: > 50.1 µM | EC50 [20]: > 50.1 µM | IC50 [20]: > 50.1 µM | EC50 [21]: > 100 µM | IC50 [22]: > 100 µM | IC50 [23]: > 25.1 µM | EC50 [24]: > 50.1 µM | IC50 [24]: > 50.1 µM | IC50 (Histamine H1 receptor): > 25.1 µM | EC50 [25]: > 50.1 µM | IC50 [25]: > 50.1 µM | EC50 (D(2) dopamine receptor): > 100 µM | IC50 (D(2) dopamine receptor): > 100 µM | IC50 [26]: > 50.1 µM | IC50 [27]: > 100 µM | EC50 (Adenosine receptor A2a): > 100 µM | IC50 [28]: 79.4 µM | IC50 [29]: > 100 µM | IC50 [30]: > 100 µM | IC50 [31]: > 100 µM | IC50 (Acetylcholinesterase): > 100 µM | EC50 [32]: > 50.1 µM | EC50 [33]: > 100 µM | IC50 [33]: > 100 µM | IC50 (Aurora kinase B): > 31.6 µM | IC50 [34]: > 100 µM | IC50 [35]: > 100 µM | IC50 (Substance-P receptor): > 25.1 µM | EC50 [36]: > 100 µM | EC50 [37]: > 100 µM | IC50 [37]: > 100 µM | EC50 [38]: > 100 µM | EC50 (Mu-type opioid receptor): > 100 µM | EC50 [39]: > 25.1 µM
